# Measured values reported in US9422285B2, “Substituted pyrazolo[1,5-A]-pyridine-3-carboxamides and use thereof” (Bayer Pharma Aktiengesellschaft, priority 2014, dated 2016).
# Counter-ions that a name gives are not always drawn.
# Molecular target: T1, recombinant guanylate cyclase reporter cell line (Rattus norvegicus, UniProt P19686+P20595)
# T1 construct: expressed in transfected cells
# T1 sequence (P19686 1-690): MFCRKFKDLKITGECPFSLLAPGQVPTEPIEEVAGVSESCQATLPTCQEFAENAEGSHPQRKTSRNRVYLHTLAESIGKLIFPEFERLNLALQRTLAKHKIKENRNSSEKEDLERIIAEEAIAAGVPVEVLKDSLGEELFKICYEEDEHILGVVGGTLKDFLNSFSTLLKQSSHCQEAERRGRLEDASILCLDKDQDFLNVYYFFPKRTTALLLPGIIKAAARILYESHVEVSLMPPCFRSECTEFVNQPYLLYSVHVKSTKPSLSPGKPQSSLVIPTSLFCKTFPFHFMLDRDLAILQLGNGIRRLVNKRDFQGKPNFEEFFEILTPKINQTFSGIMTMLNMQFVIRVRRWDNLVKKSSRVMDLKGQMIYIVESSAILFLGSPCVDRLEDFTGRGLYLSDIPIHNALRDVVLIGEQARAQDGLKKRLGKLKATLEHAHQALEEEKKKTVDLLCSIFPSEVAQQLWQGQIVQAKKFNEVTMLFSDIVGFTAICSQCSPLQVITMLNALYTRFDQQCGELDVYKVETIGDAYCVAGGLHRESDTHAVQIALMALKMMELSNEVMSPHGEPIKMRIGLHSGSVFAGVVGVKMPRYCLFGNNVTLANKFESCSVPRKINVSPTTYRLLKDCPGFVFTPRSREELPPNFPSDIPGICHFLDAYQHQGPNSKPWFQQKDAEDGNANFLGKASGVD
# T1 sequence (P20595 1-619): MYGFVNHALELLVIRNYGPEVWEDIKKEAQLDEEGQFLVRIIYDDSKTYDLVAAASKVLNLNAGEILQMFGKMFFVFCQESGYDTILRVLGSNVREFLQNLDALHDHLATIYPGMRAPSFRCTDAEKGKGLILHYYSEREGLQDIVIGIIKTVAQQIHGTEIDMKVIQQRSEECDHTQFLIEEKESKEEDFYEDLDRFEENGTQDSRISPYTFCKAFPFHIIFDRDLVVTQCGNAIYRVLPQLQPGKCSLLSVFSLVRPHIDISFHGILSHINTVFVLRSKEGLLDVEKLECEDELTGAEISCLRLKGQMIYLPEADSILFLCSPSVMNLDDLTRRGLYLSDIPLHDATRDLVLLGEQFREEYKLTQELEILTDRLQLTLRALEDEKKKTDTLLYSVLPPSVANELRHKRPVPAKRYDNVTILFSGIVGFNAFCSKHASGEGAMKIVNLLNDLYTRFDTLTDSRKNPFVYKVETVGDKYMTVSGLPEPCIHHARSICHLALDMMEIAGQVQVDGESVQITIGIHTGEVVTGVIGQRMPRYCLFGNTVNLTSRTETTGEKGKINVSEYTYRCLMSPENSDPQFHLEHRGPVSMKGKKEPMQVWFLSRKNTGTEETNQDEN
# Experiment: Effect on a recombinant guanylate cyclase reporter cell line (B-2)
# Assay type: cell-based
# Settings: in some cases mean values for individual determinations
# Protocol: B-2. Effect on a Recombinant Guanylate Cyclase Reporter Cell Line
# The cellular effect of the inventive compounds is determined using a recombinant guanylate cyclase reporter cell line, as described in F. Wunder et al., Anal. Biochem. 339, 104-112 (2005).
# Representative MEC values (MEC=minimum effective concentration) for the inventive compounds are shown in the table below (in some cases as mean values for individual determinations): […]
row,Structure (SMILES),MEC (minimum effective concentration)
1,"CCCC(C)(N)CNC(=O)c1c(C)nn2c(OCc3c(F)cccc3F)cccc12 (racemic) [Example 163, rac-N-(2-Amino-2-methylpentyl)-7-[(2,6-difluorobenzyl)oxy]-2-methylpyrazolo[1,5-a]pyridine-3-carboxamide]",3.0 µM
2,"COC(=O)[C@H]1CC[C@H](CNC(=O)c2c(C)nn3c(OCc4c(F)cccc4F)cc(C)cc23)CC1 [Example 35, Methyl trans-4-{[({7-[(2,6-difluorobenzyl)oxy]-2,5-dimethylpyrazolo[1,5-a]pyridin-3-yl}carbonyl)amino]methyl}cyclohexanecarboxylate]",1.0 µM
3,"Cc1cc(OCc2c(F)cccc2F)n2nc(C)c(C(=O)N[C@@H]3CCNC3=O)c2c1 [Example 98, 7-[(2,6-Difluorobenzyl)oxy]-2,5-dimethyl-N-[(3R)-2-oxopyrrolidin-3-yl]pyrazolo[1,5-a]pyridine-3-carboxamide]",3.0 µM
4,"Cc1cc(OCc2c(F)cccc2F)n2nc(C)c(C(=O)NCC(N)c3csc(C)n3)c2c1 (racemic) [Example 73, rac-N-[2-Amino-2-(2-methyl-1,3-thiazol-4-yl)ethyl]-7-[(2,6-difluorobenzyl)oxy]-2,5-dimethylpyrazolo[1,5-a]pyridine-3-carboxamide trifluoroacetate]",3.0 µM
5,"Cc1cc(OCc2c(F)cccc2F)n2nc(C)c(C(=O)NCC(C)(N)COc3ccc(F)c(F)c3)c2c1 (racemic) [Example 79, rac-N-[2-Amino-3-(3,4-difluorophenoxy)-2-methylpropyl]-7-[(2,6-difluorobenzyl)oxy]-2,5-dimethylpyrazolo[1,5-a]pyridine-3-carboxamide]",3.0 µM
6,"C=CCONC(=O)c1c(C)nn2c(OCc3c(F)cccc3F)cc(C)cc12 [Example 65, N-(Allyloxy)-7-[(2,6-difluorobenzyl)oxy]-2,5-dimethylpyrazolo[1,5-a]pyridine-3-carboxamide trifluoroacetate]",3.0 µM
7,CCCC(C)(N)CNC(=O)c1c(C)nn2c(OCc3c(F)cccc3Cl)cc(C)cc12 (racemic) [Example 164],1.0 µM
8,"COc1cccc(C(CN)NC(=O)c2c(C)nn3c(OCc4c(F)cccc4F)cc(C)cc23)c1 (racemic) [Example 123, rac-N-[2-Amino-1-(3-methoxyphenyl)ethyl]-7-[(2,6-difluorobenzyl)oxy]-2,5-dimethylpyrazolo[1,5-a]pyridine-3-carboxamide]",1.0 µM
9,"Cc1cc(OCc2c(F)cccc2F)n2nc(C)c(C(=O)NC3CCC(C)(C)c4ccccc43)c2c1 (racemic) [Example 145, rac-7-[(2,6-Difluorobenzyl)oxy]-N-(4,4-dimethyl-1,2,3,4-tetrahydronaphthalen-1-yl)-2,5-dimethylpyrazolo[1,5-a]pyridine-3-carboxamide]",1.0 µM
10,"Cc1cc(OCc2c(F)cccc2F)n2nc(C)c(C(=O)NCC(N)c3cccc(C(F)(F)F)c3)c2c1 (racemic) [Example 105, rac-N-{2-Amino-2-[3-(trifluoromethyl)phenyl]ethyl}-7-[(2,6-difluorobenzyl)oxy]-2,5-dimethylpyrazolo[1,5-a]pyridine-3-carboxamide]",3.0 µM
11,"COCC(C)(N)CNC(=O)c1c(C)nn2c(OCc3c(F)cccc3F)cc(C)cc12 (racemic) [Example 97, rac-N-(2-Amino-3-methoxy-2-methylpropyl)-7-[(2,6-difluorobenzyl)oxy]-2,5-dimethylpyrazolo[1,5-a]pyridine-3-carboxamide]",1.0 µM
12,"Cc1cc(OCc2c(F)cccc2F)n2nc(C)c(C(=O)NCC(C)(N)C(F)(F)F)c2c1 (racemic) [Example 109, rac-N-(2-Amino-3,3,3-trifluoro-2-methylpropyl)-7-[(2,6-difluorobenzyl)oxy]-2,5-dimethylpyrazolo[1,5-a]pyridine-3-carboxamide]",1.0 µM
13,"Cc1cc(OCc2c(F)cccc2F)n2nc(C)c(C(=O)NCC(C)(N)CF)c2c1 (single isomer, unassigned) [Example 40, ent-N-(2-Amino-3-fluoro-2-methylpropyl)-7-[(2,6-difluorobenzyl)oxy]-2,5-dimethylpyrazolo[1,5-a]pyridine-3-carboxamide]",1.0 µM
14,"Cc1cc(OCc2c(F)cccc2F)n2nc(C)c(C(=O)N[C@@H](CO)c3cccs3)c2c1 [Example 176, 7-[(2,6-Difluorobenzyl)oxy]-N-[(1S)-2-hydroxy-1-(2-thienyl)ethyl]-2,5-dimethylpyrazolo[1,5-a]pyridine-3-carboxamide]",0.3 µM
15,"Cc1cc(OCc2c(F)cccc2F)n2nc(C3CC3)c(C(=O)NCC(C)(N)CC(F)F)c2c1 (single isomer, unassigned) [Example 56, ent-N-(2-Amino-4,4-difluoro-2-methylbutyl)-2-cyclopropyl-7-[(2,6-difluorobenzyl)oxy]-5-methylpyrazolo[1,5-a]pyridine-3-carboxamide]",0.3 µM
16,"Cc1cc(OCc2c(F)cccc2F)n2nc(C)c(C(=O)NCCC(C)(C)N)c2c1 [Example 121, N-(3-Amino-3-methylbutyl)-7-[(2,6-difluorobenzyl)oxy]-2,5-dimethylpyrazolo[1,5-a]pyridine-3-carboxamide]",10 µM
17,"Cc1cc(OCc2c(F)cccc2F)n2nc(C)c(C(=O)NCC(N)c3csc4ccccc34)c2c1 (racemic) [Example 112, rac-N-[2-Amino-2-(1-benzothiophen-3-yl)ethyl]-7-[(2,6-difluorobenzyl)oxy]-2,5-dimethylpyrazolo[1,5-a]pyridine-3-carboxamide]",10 µM
18,"Cc1cc(OCc2c(F)cccc2F)n2nc(C)c(C(=O)NNC(=O)CN3CCCCC3)c2c1 [Example 174, 7-[(2,6-Difluorobenzyl)oxy]-2,5-dimethyl-N′-(piperidin-1-ylacetyl)pyrazolo[1,5-a]pyridine-3-carbohydrazide]",1.0 µM
19,"COc1ccc(CC(C)(N)CNC(=O)c2c(C)nn3c(OCc4c(F)cccc4F)cc(C)cc23)cc1 (racemic) [Example 99, rac-N-[2-Amino-3-(4-methoxyphenyl)-2-methylpropyl]-7-[(2,6-difluorobenzyl)oxy]-2,5-dimethylpyrazolo[1,5-a]pyridine-3-carboxamide]",0.1 µM
20,"COc1ccc2c(c1)C(NC(=O)c1c(C)nn3c(OCc4c(F)cccc4F)cc(C)cc13)CCN2 (racemic) [Example 102, rac-7-[(2,6-Difluorobenzyl)oxy]-N-(6-methoxy-1,2,3,4-tetrahydroquinolin-4-yl)-2,5-dimethylpyrazolo[1,5-a]pyridine-3-carboxamide]",1.0 µM
21,"COc1ccc2c(c1)C(NC(=O)c1c(C)nn3c(OCc4c(F)cccc4F)cc(C)cc13)CCC2 (racemic) [Example 146, rac-7-[(2,6-Difluorobenzyl)oxy]-N-(7-methoxy-1,2,3,4-tetrahydronaphthalen-1-yl)-2,5-dimethylpyrazolo[1,5-a]pyridine-3-carboxamide]",1.0 µM
22,"Cc1cc(OCc2c(F)ccc(F)c2F)n2nc(C)c(C(=O)NCCN3CCOCC3)c2c1 [Example 15, 2,5-Dimethyl-N-[2-(morpholin-4-yl)ethyl]-7-[(2,3,6-trifluorobenzyl)oxy]pyrazolo[1,5-a]pyridine-3-carboxamide]",3.0 µM
23,"COC(=O)[C@@H](N)CCCCNC(=O)c1c(C)nn2c(OCc3c(F)cccc3F)cc(C)cc12 [Example 131, Methyl N^6-({7-[(2,6-difluorobenzyl)oxy]-2,5-dimethylpyrazolo[1,5-a]pyridin-3-yl}carbonyl)-L-lysinate]",3.0 µM
